Reference: patent US10487110B2, “Stabilized compounds having secondary structure motifs” (President and Fellows of Harvard College, priority 1999, dated 2019)
Bridge positions count the residues as written; N and C are the ends. Square brackets hold non-standard residues; d marks the D form. R‑13 = (R)-2-(2'-pentenyl)alanine; R‑14 = (R)-2-(2′-hexenyl)alanine; S‑14 = (S)-2-(2′-hexenyl)alanine; S‑16 = (S)-2-(2′-octenyl)alanine

Legend:
trypsin = assay: Peptide trypsin digest (cleavage rate constants); assay type: in vitro ADME; conditions: 10% EtOH in 50 mM Tris pH 8.3, room temperature; for Cleavage rate constant, Metathesized and hydrogenated: metathesized and hydrogenated peptide; for Cleavage rate constant, Unmetathesized: unmetathesized peptide
Experimental: Peptide trypsin digest: A typical peptide trypsin digest experiment was performed by adding 5 μL of a 20× trypsin solution in 1 mM HCl to a 100 μL solution of peptide at 9 μM in 10% EtOH in 50 mM Tris at pH 8.3. The reaction was allowed to proceed at room temperature for 30 min at which time it was quenched by adding 100 μL of a 1% trifluoroacetic acid solution and frozen on dry ice. The sample was then thawed and injected into a reverse phase HPLC on a C18 column for quantitation at 280 nm. The cleavage rate constants were obtained by performing the digest experiments at multiple trypsin concentrations and fitting to a kinetic model that is first order in both enzyme and substrate concentration.

[1] = Circular dichroism measure of helical content; assay type: physicochemical
Experimental: Circular dichroism: Circular dichroism spectra were collected on a Jasco J-710 spectropolarimeter at 4° C. A typical sample was prepared by lyophilizing a measured volume of peptide solution and then resuspending it in 3 ml of 0.1% TFA in water to obtain a solution with a 280 nm absorbance of approximately 0.06 absorbance units. The sample was placed in a 1 cm CD cuvette and the ultraviolet absorbance was measured. The circular dichroism spectrum was measured and a baseline CD spectrum of 0.1% TFA in water was subtracted from it. The baseline subtracted CD spectrum was then normalized using the 280 nm absorbance.

[2] = Sedimentation equilibrium (analytical centrifugation); assay type: physicochemical; conditions: conditions of the circular dichroism experiments, 4° C.
Experimental: Analytical centrifugation: Sedimentation Equilibrium Experiments were performed on a Beckman Optima XL-A analytical centrifuge. The samples were centrifuged at 35,000 RPM at 4° C. and monitored at 280 nm. The data was fit to a single species model. The sedimentation equilibrium experiments were run on the identical samples from which circular dichroism spectra were recorded.

[3] = crosslinked versus corresponding uncrosslinked modified peptide

Substance | Cleavage rate constant, Metathesized and hydrogenated (trypsin) | decrease of helical content following RCM [1, 3] | Cleavage rate constant, Unmetathesized (trypsin) | further results
Ri,i+7S(9): Ac-EWAEyAAAKFLzAHA-NH2 (SEQ ID NO: 2), (y,z) = (R-13,S-14), 9 carbon crosslink (Ac-EWAE[R‑13]AAAKFL[S‑14]AHA-NH2; staple 5-12) | 0.37 M⁻¹ s⁻¹ | 21% | – | –
Ri,i+7S(12): Ac-EWAEyAAAKFLzAHA-NH2 (SEQ ID NO: 2), (y,z) = (R-14,S-16), 12 carbon crosslink; cis and trans isomers (Ac-EWAE[R‑14]AAAKFL[S‑16]AHA-NH2; staple 5-12; also: cis and trans olefin isomers) | 0.12 M⁻¹ s⁻¹ | – | – | –
Ri,i+7S(11): Ac-EWAEyAAAKFLzAHA-NH2 (SEQ ID NO: 2), (y,z) = (R-13,S-16), 11 carbon crosslink (Ac-EWAE[R‑13]AAAKFL[S‑16]AHA-NH2; staple 5-12) | 0.058 M⁻¹ s⁻¹ | – | 0.50 M⁻¹ s⁻¹ | helix stabilization (result in words) ([1]; circular dichroism): best helix stabilizer; increase of helical content following RCM ([1]; crosslinked versus corresponding uncrosslinked modified peptide, for Ri,i+7S(12) cis and trans double bond isomers): 26%; increase of helical structure compared to unmodified control peptide ([1]; versus unmodified control peptide): 44%; oligomeric state by sedimentation equilibrium [2]: monomeric
Ac-EWAETAAAKFLAAHA-NH2 [Control, reference compound] | – | – | 2.39 M⁻¹ s⁻¹ | Cleavage rate constant, Unmetathesized (trypsin; listed as unmodified control peptide): 2.38 M⁻¹ s⁻¹; helical content (α-helicity) ([1]; circular dichroism, water containing 0.1% trifluoroacetic acid, 4° C.): ~40%
Ri,i+7S(10): Ac-EWAEyAAAKFLzAHA-NH2 (SEQ ID NO: 2), (y,z) = (R-14,S-14), 10 carbon crosslink (Ac-EWAE[R‑14]AAAKFL[S‑14]AHA-NH2; staple 5-12) | 0.34 M⁻¹ s⁻¹ | 12% | – | –
